According to patent US20040081618A1, “Method of screening physiologically active substance” (priority 2000, published 2004):

How the values were obtained:
HL-60 cells [1] = assay: Analysis of expression using DNA microarray (740 clones from DNA microbeads screening) in TPA-treated differentiated HL-60 cells; format: cell-based, human; conditions: 4 mM DGE 100 μL in 10 mL, 6 hours, then TPA, RNA 4 hours thereafter, expression ratio 0.55 or less or 1.8 or more
Description: The reaction for PCR was carried out by using a primer pair having the sequences shown in SEQ ID NO: 10 and SEQ ID NO: 11 of Sequence Listing, with the 740 clones of plasmids obtained in Example 3 as a template. Next, the amplified product was purified by ethanol precipitation, and thereafter the product was dissolved in 1×SolutionT (manufactured by Takara Shuzo Co., Ltd.) so as to have a concentration of 0.3 μg/μl, and this solution was used as a spotting solution. The spotting solution was spotted on MAS-coated slide glass (manufactured by Matsunami Glass), amino-group carrying slide glass, by using Affymetrix 417 Arrayer (manufactured by Affymetrix). The spotted glass was incubated at 37° C. and humidity of 90% for 1 hour, and thereafter cross-linked by UV irradiation at energy of 60 mJ/cm^2. Further, the slide glass was washed once with 0.2% SDS and then twice with distilled water, and thereafter immersed in a blocking solution comprising 2.75 g of succinic anhydride, 162.5 ml of N-methyl-2-pyrrolidone and 15 ml of 1 M borate buffer (pH 8.0) for 20 minutes, to block free amino groups. Next, the slide glass was washed twice with distilled water and subjected to thermal denaturation in boiling water for 2 minutes, and rapidly cooled in 100% ethanol at ice temperature. Thereafter, the slide glass was dried by a low-speed centrifugation at 1000 rpm or so, and used for the following experiment. […]
A PolyA(+) RNA was prepared from HL-60 cells prepared in item (2) of Example 4 by using Trizol Reagent (manufactured by Gibco BRL) and Oligotex-dT30 <Super> (manufactured by Takara Shuzo Co., Ltd.) in accordance with the protocol for each of the kits. Next, each of cDNAs labeled with Cy3 and Cy5 was prepared by using RNA Fluorescence Labeling Core Kit (M-MLV Version) (manufactured by Takara Shuzo Co., Ltd.) in accordance with the protocol for the kit with 1.0 μg of PolyA(+) RNA as a template, and their cDNAs were mixed in the combinations of the sample RNA shown in Table 8.
Next, hybridization of the DNA microarray prepared in item (1) of Example 4 with the above-mentioned mixtures (4 kinds) of Cy3-labeled cDNA and Cy5-labeled cDNA was carried out in accordance with the instruction manual of IntelliGene (manufactured by Takara Shuzo Co., Ltd.), and the array was subjected to procedures of washing and drying. Subsequently, the fluorescence images were obtained for Cy3 (excitation wavelength: 532 nm, detection wavelength: 570 nm) and Cy5 (excitation wavelength: 635 nm, detection wavelength: 660 nm) by using Affymetrix 428 Array Scanner (manufactured by Affymetrix). […]

[2] = system: plastic adherent monocytes; assay: Gene expression analysis with Human Cytokine CHIP (ver. 2.0) in LPS-treated plastic adherent monocytes; format: cell-based
Description: Four-hundred milliliters of blood was collected from a human normal individual donor. The collected blood was diluted 2-folds with PBS(−), overlaid on Ficoll-paque (manufactured by Pharmacia), and centrifuged at 500×g for 20 minutes. The peripheral blood mononuclear cells (PBMCs) in the intermediate layer was collected with a pipette, and washed with RPMI 1640 medium (manufactured by Bio Whittaker). The collected PBMCs were suspended in a storage solution of 90% FCS (manufactured by JRH Biosciences)/10% dimethyl sulfoxide, and stored in liquid nitrogen. During the experiment, these stored PBMCs were rapidly melted in water bath at 37° C., and washed with RPMI 1640 medium containing 10 μg/ml Dnase (manufactured by Calbiochem). Thereafter, the number of living cells was calculated by trypan blue staining method, and subjected to each experiment.
PBMCs were suspended in RPMI 1640 medium containing 5% human serum of blood type-AB, 0.1 mM nonessential amino acid, 1 mM sodium pyruvate, 2 mM L-glutamine (hereinabove manufactured by Bio Whittaker), 10 mM HEPES (manufactured by nakalai tesque), and 1% streptomycin-penicillin (manufactured by Gibco BRL) (hereinafter simply referred to as “5HRPMI medium”) so as to have a concentration of 1×10^7 cells/mL. Thereafter, 15 ml of the suspension was spread on a 100-mm petri dish (manufactured by Asahi Techno Glass), and the cells were incubated in a wet-type incubator at 37° C. in the presence of 5% CO2 for 1.5 hours. […]
The synthesis of cDNA was carried out in accordance with the method described in item (2) of Example 1, provided that the combination of the solutions of fluorescence-labeled DNA was in accordance with that shown in Table 6. […]
The fluorescence signal was scanned for each spot of the above-mentioned chip by using Affymetrix 428 Array Scanner (manufactured by Takara Shuzo Co., Ltd.). The fluorescence signal was quantified for each spot by using ImaGene (manufactured by Takara Shuzo Co., Ltd., BD001) on the bases of the image data. […]

HL-60 cells [3] = assay: Gene expression analysis with Human Cytokine CHIP (ver. 1.0) in TPA-treated neutrophile-like differentiated HL-60 cells; format: cell-based; conditions: genes showing fluctuation by TPA; 100 μL of 4 mM DGE aqueous solution added to 10 mL of 10^6 cells/mL, 6 hours, then TPA, total RNA 4 hours thereafter
Description: HL-60 cells (ATCC CCL-240) were suspended in RPMI 1640 medium (manufactured by Bio Whittaker, 12-702F) containing 10% fetal bovine serum (manufactured by JRH Biosciences) and 1.3% dimethyl sulfoxide, and the cells were cultured at 37° C. for one week in the presence of 5% carbon dioxide gas to induce differentiation to neutrophile-like cells.
The cells obtained as described above were collected by centrifugation, and suspended in 10% fetal bovine serum-containing RPMI 1640 medium so as to have a concentration of 10^6 cells/mL, and 10-mL portions of the cells were added to a 10-cm petri dish. […]
Twenty-five micrograms of each of the total RNAs obtained as described above and 100 pg of λ poly A^+ RNA-A (manufactured by Takara Shuzo Co., Ltd., TX802) were subjected to synthesis reaction of fluorescence-labeled cDNA by using RNA Fluorescence Labeling Core Kit (manufactured by Takara Shuzo Co., Ltd., TX807) and 1 mM FluoroLink Cy3-dUTP or Cy5-dUTP (manufactured by Amersham-Pharmacia Biotech, PA53022(Cy3), PA55022(Cy5) in accordance with the instruction for the kit and the resulting cDNA was purified. The solutions of fluorescence-labeled DNA were mixed in the combination of Table 4, and the mixture was subjected to a chloroform-isoamyl alcohol (24:1) extraction. […]

[4] = clones decreased by treatment with TPA
[5] = clones increased by treatment with TPA

O=C1C=CC(CO)OC1O [DGE, L-glycero-1,5-epoxy-1αβ,6-dihydroxy-cis-hex-3-en-2-one]
Expression of Group C-3 clones (NDRG1, ADAR, SF3B2, ILF3, VARS2, SEQ ID NO: 12; Tables 9, 11) (HL-60 cells [1]; [4]): further decreased
Expression of Group D-3 clones (EEF1A1, RPL17, RPL24, SFRS2, TPT1, UQCRB, RPS15A, RPL27; Tables 10, 11) (HL-60 cells [1]; [4]): further increased
Expression of Group A-3 clones (STAT6, FLJ22298 fis clone HRC04637; Tables 9, 11) (HL-60 cells [1]; [5]): further decreased
Expression of Group B-3 clones (SUI1, HSPC014; Tables 9, 11) (HL-60 cells [1]; [5]): further increased
Increase by LPS in expression of Group E genes (IL2RA, IL6, CD166, IRF1, IL15RA, NFKB1, CASP1, IL1B, TNF-α, GRO1, IL1A, INHBA, IL7R, PBEF, LARC, IL8; Table 7) ([2]; 10 μL of 20 mM DGE aqueous solution in 10 mL medium, 4 hours, then LPS, total RNA 4 hours thereafter): suppressed
Expression of Group G genes (Heme oxygenase-1 HMOX1; Table 7) ([2]; DGE+LPS versus negative control): increased
Expression of Group F genes (CSF1R, CXCR4, ENG; Table 7) ([2]; genes not fluctuating by LPS, DGE+LPS versus negative control): decreased
Expression of Group A-1 genes (BMP-6, CCR-1, HGF, ICAM-1, IL-1β, IL-16, LIF, Osteopontin, TNF-α, Neuropilin-1; Table 5) (HL-60 cells [3]): suppressed
Expression of Group B-1 genes (Heme oxygenase-1, Thioredoxin reductase-1; Table 5) (HL-60 cells [3]): accelerated
